Results on one substance are retold here after patent US8415156B2, “Recombinant laminin-521” (Biolamina AB, priority 2010, dated 2013).

Assay [1] deals with human ES cells. In words: Long-term culture with single cell dissociation passaging (Example 1). Conditions: for proliferation rate compared with Matrigel / classical methods: single cell suspension passaging vs passaging in clumps. It counts as cell-based. The procedure: Human ES cells were cultured on r-laminin-521-coated laboratory dishes in chemically defined O3 medium (described in Rodin et al., Nature Biotechnol., vol. 28, pp. 611-615 (2010)) at 37° C. in 5% CO2. Cells were routinely passed once every 10-12 days by exposure to Trypsin-EDTA solution (GIBCO Invitrogen) for 5 minutes at 37° C. They were then gently pipetted to break into single-cell suspension and defined trypsin inhibitor (GIBCO Invitrogen) was added. The cell suspension was centrifuged […], the supernatant discarded, the cell pellet resuspended in prewarmed O3 medium, and cells were then passed through a 40 μm sieve. After that cells were plated on new r-laminin-521-coated dishes at a concentration 30 Kcells/cm^2 (1:25-1:30 split ratio). Cells were fed once a day with fresh medium prewarmed in an incubator for 1 hour, except for the first day after a passage, when only a few drops of fresh medium were added. Control cells of the same line were cultured on Matrigel (BD Biosciences) in O3 medium as described in Rodin et al., Nature Biotechnol., vol. 28, pp. 611-615 (2010). Control cells were passaged in pieces.

The subject of assay [2] is Oct4 and Nanog. Briefly: Real-time quantitative RT-PCR of pluripotency markers (Example 1). It counts as cell-based, human. Conditions: after several single cell dissociation passages. The method, then: Total RNA was isolated and cDNA was synthesized as described in Rodin et al., Nature Biotechnol., vol. 28, pp. 611-615 (2010). Real-time quantitative RT-PCR Taqman assays were performed using the Applied Biosystems 7300 Real-Time PCR System. All reactions were done in quadruplicate with predeveloped gene expression assay mix (Applied Biosystems) containing primers and a probe for the mRNA of interest. Additional reactions for each experiment included predeveloped gene expression assay mix for GAPDH, used to normalize the RNA input. All data were analyzed with 7300 System SDS Software version 1.4.

Assay [3] has as its system HS181, HS401, H1 cells. In words: Long-term self-renewal of hES cells on LN-521 (Example 2). The class given is cell-based, human. The procedure:
Human ES cells of HS181 and HS401 were cultured on LN-521-coated culture dishes in O3 medium (described in Rodin et al., Nature Biotechnol., vol. 28, pp. 611-615 (2010) with pH was adjusted to 7.35), mTeSR1 (STEMCELL Technologies) and chemically defined and xeno-free TeSR2 (STEMCELL Technologies) at 37° C., 5% CO2. Initially, cells of the lines were transferred onto a LN-521 coating from a human feeder cell layer by careful scratching using a sterile knife with subsequent trypsinization, or the cells were trypsinized into single cell suspension from a LN-511 coating. The cells were provided once a day with fresh medium pre-warmed in an incubator for one hour, except for the first day after plating, when only a few drops of fresh medium were added. Cells were routinely passed once in 10-12 days by exposure to Trypsin/EDTA (GIBCO Invitrogen Corporation, Paisley, Scotland) for 5 minutes at 37° C., 5% CO2. They were then gently pipetted to break into single-cell suspension and a Defined Trypsin Inhibitor (GIBCO Invitrogen) was added. The cell suspension was centrifuged at 25 rcf for 4 minutes, the supernatant was discarded, the cell pellet was resuspended in prewarmed O3 medium, and the cells were then passed through a 40 μm sieve. Subsequently, the cells were plated on new LN-521-coated dishes at a concentration of 30,000 cells/cm^2 in 1:25-1:30 split ratios. Control cells of the same line were cultured on Matrigel (STEMCELL Technologies) and LN-511 in O3 medium as described previously.^9
For defined and xeno-free cultures, TeSR2 (STEMCELL Technologies) medium and defined free from any animal derived component TrypLE™ Select (GIBCO Invitrogen Corporation, Paisley, Scotland) enzyme were used. The cells were passed every 10-14 days by exposure to TrypLE™ Select for 4-5 minutes at 37° C., 5% CO2. Then, the enzyme was carefully aspirated and prewarmed TeSR2 medium was added. After that, the cells were gently pipetted to break into single-cell suspension, centrifuged, the supernatant was discarded, and the cell pellet was resuspended in prewarmed TeSR2. The cells were then passed through a 40 μm sieve and plated on a fresh LN-521 coated dish.

Assay [4] concerns human iPS ChiPSW and CutB1.2 cells. In words: Long-term self-renewal of human iPS cells on LN-521. The following applies: mTeSR1. The class given is cell-based.
The subject of assay [5] is hES cells. Briefly: In vivo imaging and migration assay. The class given is cell-based, human. The procedure:
24-well plates were coated by extracellular matrix proteins and blocked by O3 medium containing bovine serum albumin. The ES cells were plated at cell density of 30,000-40,000 cells/cm^2 onto extracellular matrix-coated plates and left to adhere for half an hour in a cell incubator. After that, the plate was transferred into high content imaging system Operetta (PerkinElmer) equipped with environmental control unit, which allowed to keep 37° C., 5% CO2. For two movies that were made, the brightfield images were taken once in 15 minutes during 24 hours after plating using Harmony software (PerkinElmer), exported, and analyzed using ImageJ software (NIH, the US). For migration assay the images were taken every seven minutes during 18 hours after plating. Images acquired between the fifth and seventh hours after plating were analyzed using MTrackJ plug-in (University Medical Center, Rotterdam, The Netherlands). 100 attached cells on each coating were traced and mean distances from the current to the previous point of the track were calculated. Error bars show standard error of the mean s.e.m. (n=100).

Assay [6] deals with hES cells. Briefly: Clonal survival of individualized hES cells (Example 4). The class given is cell-based, human. The following applies: mTeSR1; 250 cells per cm^2; 5 days; alkaline phosphatase staining. The method, then:
hES cells were plated in mTeSR1 medium on different coatings at a density of 250 cells per cm^2 and monitored after 5 days in culture using an alkaline phosphatase staining kit.
Next, combinations of laminin-521 and E-Cadherin were tested to determine whether the combinations could sustain clonal survival of the cells. Fixed amounts of laminin-521 were used for the cell culture dish coating in combination with titrated E-Cadherin.
Additional tests were performed to test the effects of various modifications to the mTeSR1 medium. A mixture of E-Cadherin to laminin-521 in a ratio of about 1:10 w/w was used to coat the plates. […] Time-lapse photography of the cells confirmed that laminin-521/E-Cadherin coatings facilitated cell survival through proliferation of the single cells, not through the aggregation of different cells.

On to “LN-521: protein formed by joining α5, β2 and γ1 chains together; human recombinant, produced in HEK293 cells”, for which the “passages in single cell suspension giving the same number of cell divisions as cultures on Matrigel after 20 passages” value in assay [1] (3 passages = 1 month, Matrigel passaged in pieces, 20 passages (3 months / 100 days)) was found to be 3 passages. Besides, in assay [1] (single cell passaging every 10-12 days, 1:25 to 1:30 ratios, 3 months), the “passages with robust proliferation at a stable and high rate” value is on record as “at least 9 passages”. Moreover, the “proliferation rate compared with Matrigel / classical methods” value in assay [1] was “much faster rate”; in assay [1] (listed as laminin-521), “higher rate”. In addition, the “number of mRNA transcripts of Oct4 and Nanog compared with Matrigel” value in assay [2] was “higher numbers of transcripts”. Besides, the “passages of proliferation, HS401 cells” value in assay [3] (O3 medium, 2 months) is listed as at least 5 passages. Also, the “passages of proliferation, H1 cells” value in assay [3] (O3 medium, 6 months) is given as at least 15 passages. Further, the “passages of proliferation, HS181 cells” value in assay [3] (O3 medium, 9 months) was “at least 24 passages”. The “passages cultured, HS401 cells” value in assay [3] (TeSR2, TrypLE Select, xeno-free, 1.5 months) stood at 4 passages. Also, the “passages cultured, H1 cells” value in assay [3] (TeSR2, TrypLE Select, xeno-free, 5 months) came out at 12 passages. The “plating efficacy after a passage in TeSR2 compared with O3 or mTeSR1 media” value in assay [3] (TeSR2 medium and TrypLE Select) is “slightly lower”. For the same substance, the “passages cultured, ChiPSW cells” value in assay [4] was 3 passages. Moreover, the “passages cultured, CutB1.2 iPS cells” value in assay [4] came out at 5 passages. Further, in assay [5], the “migration of cells (in vivo imaging) compared with Matrigel” value is on record as “much faster”. In assay [5] (compared with Matrigel, LN-111, LN-511), the “motility of hES cells between the fifth and seventh hours after plating” value was “higher than that of the cells on other coatings”. The “clonal survival of individualized hES cells” value in assay [6] was “Neither laminin-521 nor E-Cadherin alone permitted efficient clonal survival”.
